Data on 14 compounds can be found in ChEMBL document CHEMBL1143142, “5-Substituted 1H-pyrrolo[3,2-b]pyridines as inhibitors of gastric acid secretion” (Bioorg Med Chem, 2008).

SMILES strings stand for the structures.

The nature of data set [1]: Dissociation constant, pKa of the compound. The format is physicochemical.
Data set [2] can be described thus: Distribution coefficient, log D at pH 7.4. The note with it: octanol/water.
The test system of a further data set is Gastric gland. Kind of data set: Inhibition of gastric acid secretion in rabbit gastric gland assessed as accumulation of 14C]-[…]. The note with it: Oryctolagus cuniculus. Type of data set: functional, tissue-based.
The nature of data set [3]: Inhibition of hog gastric mucosa H/+K+ ATPase. Type of data set: tissue-based.

`CCc1cccc(C)c1CNc1cc(C(=O)N(C)C)nc2c(CO)c(C)[nH]c12` came in with a pKa in data set [1] of 7.07. In addition, the logD in data set [2] was 3.27. The IC50 with Gastric gland was 50.1 µM. The “Log IC50” value in data set [3] was -5.7.

`Cc1cccc(C)c1CNc1cc(C(=O)N(C)C)nc2c(C)c(C)n(Cc3ccccc3)c12` gave a pKa in data set [1] of 6.86. The compound also returned a logD in data set [2] of 5.2. The IC50 in the data set on Gastric gland was 1 µM. For the same compound, in data set [3], the “Log IC50” value was -5.1.

As to `Cc1cccc(C)c1CNc1cc(C(=O)N(C)C)nc2c(CO)c(C)[nH]c12`, the pKa in data set [1] came out at 7.2. The compound further came in with a logD in data set [2] of 2.95. Besides, the IC50 with Gastric gland was 63.1 µM. In addition, the “Log IC50” value in data set [3] was -5.6.

`Cc1cccc(C)c1CNc1cc(C(=O)N(C)C)nc2c(Br)c(C)[nH]c12` yielded a pKa in data set [1] of 6.02. This compound also gave a logD in data set [2] above 4.8. Further, the IC50 in the data set on Gastric gland is 3.16 µM. For the same compound, the “Log IC50” value in data set [3] is listed as -5.

Compound `CCc1cccc(C)c1CNc1cc(C(=O)N(C)C)nc2c(Br)c(C)[nH]c12` came in with a pKa in data set [1] of 5.84. Moreover, the logD in data set [2] was above 4.8. Besides, the IC50 in the data set on Gastric gland is 10 µM. Also, the “Log IC50” value in data set [3] is given as -5.

`CCc1cccc(C)c1CNc1cc(C(=O)N(C)C)nc2c(C)c(C)[nH]c12` had a pKa in data set [1] of 7.57. For the same compound, in data set [2], the logD is 4.6. Besides, the IC50 in the data set on Gastric gland was 0.251 µM. The “Log IC50” value in data set [3] is -6.6.

Compound `Cc1cccc(C)c1CNc1cc(C(=O)N(C)C)nc2c(CO)c(C)n(Cc3ccccc3)c12` registered a pKa in data set [1] of 6.52. The compound further registered a logD in data set [2] of 3.87. Besides, the IC50 in the data set with Gastric gland was 10 µM. Moreover, the “Log IC50” value in data set [3] is -4.6.

In data set [1], `Cc1cccc(C)c1CNc1cc(C(=O)N(C)C)nc2c(C)c(C)n(C)c12` came in with a pKa of 7.13. The compound further displayed a logD in data set [2] of 3.53. Further, the IC50 in the data set with Gastric gland is 15.8 µM. Also, the “Log IC50” value in data set [3] is given as -4.6.

On to `Cc1cc2nc(C(=O)N(C)C)cc(NCc3c(C)cccc3C)c2[nH]1`, for which, in data set [1], the pKa was 7.3. Moreover, the logD in data set [2] came out at 3.62. For the same compound, the IC50 in the data set on Gastric gland is 2.51 µM. Further, in data set [3], the “Log IC50” value is listed as -6.1.

`CNC(=O)c1cc(NCc2c(C)cccc2C)c2[nH]c(C)cc2n1` displayed a pKa in data set [1] of 7.33. The compound also gave a logD in data set [2] of 2.96. Besides, the IC50 in the data set with Gastric gland is 1.58 µM. Moreover, the “Log IC50” value in data set [3] is -5.5.

In the case of `CNC(=O)c1cc(NCc2c(C)cccc2C)c2[nH]c(C)c(Br)c2n1`, in data set [1], the pKa was 7.39. Further, the IC50 in the data set on Gastric gland was 5.01 µM. Further, the “Log IC50” value in data set [3] is below -4.

Compound `Cc1cccc(C)c1CNc1cc(C(=O)N(C)C)nc2c(C)c(C)[nH]c12` had a pKa in data set [1] of 7.56. Besides, the IC50 in the data set with Gastric gland is 0.251 µM. Besides, the “Log IC50” value in data set [3] is reported as -6.9.

For `CCc1cccc(C)c1CNc1cc(C(=O)N(C)C)nc2cc(C)[nH]c12`, the pKa in data set [1] came to 7.39. Also, in data set [2], the logD stood at 4.1. The IC50 in the data set with Gastric gland is 3.16 µM. The “Log IC50” value in data set [3] is -5.9.

As for `Cc1cccc(C)c1CNc1cc(C(=O)N(C)C)nc2c(C)c(C)n(CC(C)O)c12` (centres undefined), in data set [1], the pKa stood at 7.19. For the same compound, the logD in data set [2] amounted to 3.4. Moreover, the IC50 with Gastric gland is 3.98 µM. Moreover, the “Log IC50” value in data set [3] is -4.8.
